Read-outs that look alike come from different tables or passages of the source. Positions of bridges follow the written chain, without caps; N, C: chain ends. Non-standard residues stand in square brackets, D forms with d. Residues, ends and D or L forms follow the SMILES beside them. Nle = CCCC[C@H](N)C(=O)O
How the values were obtained:
Frog (Rana pipiens) Skin [1] = format: cell-based
Protocol: (§1) The biological potencies of alpha-MSH, the linear and cyclic analogues were determined by their ability to stimulate melanosome dispersion in vitro in the frog and lizard bioassays. This in vitro assay provides clear cut dose response curves (between 2.5×10^-11 and 4×10^-10 M) and can detect minimal concentration of alpha-MSH of about 10^-11 M. The assay is based upon the centrifugal dispersion of melanosomes (melanin granules) within the dendritic processes of integumental dermal melanophores leading to darkening of the skin. All the test solutions were prepared via serial dilutions from a stock solution (10^-4 M). The frogs (Rana pipiens) used in these evaluations were obtained from Kons Scientific, Germantown, Wis., and the lizards (Anolis carolinensis) were from the Snake Farm, La Place, La.

[2] = system: Lizard (Anolis carolinensis) Skin; format: cell-based
Protocol: as §1

[3] = system: Lizard (Anolis carolinensis) Skin; conditions: relative to alpha-MSH = 1.0; selective fragments of alpha-MSH, previous research; cited from earlier work
Frog (Rana pipiens) Skin [4] = conditions: cited from earlier work; for Relative Potency Frog: relative to alpha-MSH = 1.0, selective fragments of alpha-MSH, previous research
[5] = cyclic analogues, alpha-MSH = 1.0

## CCCC[C@H](NC(C)=O)C(=O)N[C@@H](CCC(=O)O)C(=O)N[C@@H](Cc1c[nH]cn1)C(=O)N[C@@H](Cc1ccccc1)C(=O)N[C@@H](CCCNC(=N)N)C(=O)N[C@@H](Cc1c[nH]c2ccccc12)C(=O)N[C@@H](CCCCN)C(N)=O [Analogue 13]
Frog (Rana pipiens) Skin [1]
  Biological Potency Frog: 0.001
Frog (Rana pipiens) Skin [1]; linear analogues
  Residual Activity Frog (prolonged action): P(+)
[2]
  Biological Potency Lizard: 0.08
[2]; linear analogues
  Residual Activity Lizard (prolonged action): P(-)

## CCCC[C@H](NC(C)=O)C(=O)N[C@H]1CCC(=O)NCCCC[C@@H](C(=O)NCC(=O)N2CCC[C@H]2C(=O)N[C@H](C(N)=O)C(C)C)NC(=O)[C@H](Cc2c[nH]c3ccccc23)NC(=O)[C@H](CCCNC(=N)N)NC(=O)[C@@H](Cc2ccccc2)NC(=O)[C@H](Cc2c[nH]cn2)NC1=O [Analogue 15] (Ac-[Nle]EH[dF]RWKGPV-NH2; lactam 2-7)
Frog (Rana pipiens) Skin [1]; cyclic analogues
  Residual Activity Frog (prolonged action): p(+)
Frog (Rana pipiens) Skin [1]; [5]
  Biological Potency Frog: 1.0
[2]; cyclic analogues
  Residual Activity Lizard (prolonged action): p(+)
[2]; [5]
  Biological Potency Lizard: 6.0

## CCCC[C@H](NC(C)=O)C(=O)N[C@H]1CCC(=O)NCCCC[C@@H](C(N)=O)NC(=O)[C@H](Cc2c[nH]c3ccccc23)NC(=O)[C@H](CCCNC(=N)N)NC(=O)[C@@H](Cc2ccccc2)NC(=O)[C@H](Cc2c[nH]cn2)NC1=O [Analogue 16]
Frog (Rana pipiens) Skin [1]; cyclic analogues
  Residual Activity Frog (prolonged action): p(+)
Frog (Rana pipiens) Skin [1]; [5]
  Biological Potency Frog: 0.5
[2]; cyclic analogues
  Residual Activity Lizard (prolonged action): p(+)
[2]; [5]
  Biological Potency Lizard: 9.0

## CCCC[C@H](NC(C)=O)C(=O)N[C@H]1CC(=O)NCCC[C@@H](C(N)=O)NC(=O)[C@H](Cc2c[nH]c3ccccc23)NC(=O)[C@H](CCCNC(=N)N)NC(=O)[C@@H](Cc2ccccc2)NC(=O)[C@H](Cc2c[nH]cn2)NC1=O [Analogue 18]
Frog (Rana pipiens) Skin [1]; cyclic analogues
  Residual Activity Frog (prolonged action): p(-)
Frog (Rana pipiens) Skin [1]; [5]
  Biological Potency Frog: 1.0
[2]; cyclic analogues
  Residual Activity Lizard (prolonged action): p(-)
[2]; [5]
  Biological Potency Lizard: 20.0

## CCCC[C@H](NC(C)=O)C(=O)N[C@H]1CC(=O)NCC[C@@H](C(N)=O)NC(=O)[C@H](Cc2c[nH]c3ccccc23)NC(=O)[C@H](CCCNC(=N)N)NC(=O)[C@@H](Cc2ccccc2)NC(=O)[C@H](Cc2c[nH]cn2)NC1=O [Analogue 19]
Frog (Rana pipiens) Skin [1]; cyclic analogues
  Residual Activity Frog (prolonged action): p(-)
Frog (Rana pipiens) Skin [1]; [5]
  Biological Potency Frog: 1.0
[2]; cyclic analogues
  Residual Activity Lizard (prolonged action): p(-)
[2]; [5]
  Biological Potency Lizard: 5.0

## CCCC[C@H](NC(C)=O)C(=O)N[C@H]1CC(=O)NC[C@@H](C(N)=O)NC(=O)[C@H](Cc2c[nH]c3ccccc23)NC(=O)[C@H](CCCNC(=N)N)NC(=O)[C@@H](Cc2ccccc2)NC(=O)[C@H](Cc2c[nH]cn2)NC1=O [Analogue 20]
Frog (Rana pipiens) Skin [1]; cyclic analogues
  Residual Activity Frog (prolonged action): p(-)
Frog (Rana pipiens) Skin [1]; [5]
  Biological Potency Frog: 0.01
[2]; cyclic analogues
  Residual Activity Lizard (prolonged action): p(-)
[2]; [5]
  Biological Potency Lizard: 5.0

## Ac--[Nle^4 ]-alpha-MSH4-10 NH2
[3]
  Relative Potency Lizard: 0.06
Frog (Rana pipiens) Skin [4]
  Relative Potency Frog: 0.002

## Ac--[Nle^4 ]-alpha-MSH4-11 NH2
[3]
  Relative Potency Lizard: 1.0
Frog (Rana pipiens) Skin [4]
  Relative Potency Frog: 0.002

## Ac--[Nle^4, D--Phe^7 ]-alpha-MSH4-10 NH2
[3]
  Relative Potency Lizard: 10.0
Frog (Rana pipiens) Skin [4]
  Relative Potency Frog: 0.02

## Ac--[Nle^4,D--Phe^7 ]-alpha-MSH1-13 NH2
[3]
  Relative Potency Lizard: 5.0
Frog (Rana pipiens) Skin [4]
  Relative Potency Frog: 60.0

## Ac-Met-Glu-His-Phe-Arg-Trp-Gly-NH2 [Ac-alpha-MSH4-10 NH2]
[3]
  Relative Potency Lizard: 0.004
Frog (Rana pipiens) Skin [4]; compared to the native hormone
  melanocyte stimulating activity in frog skin: weak agonist
Frog (Rana pipiens) Skin [4]
  Relative Potency Frog: 0.0003

## Ac[Nle^4, D--Phe^7 ]-alpha-MSH4-11 NH2
[3]
  Relative Potency Lizard: 8.0
Frog (Rana pipiens) Skin [4]
  Relative Potency Frog: 0.16
